Results on seven molecules are retold here after patent US7795296B2, “Crystals of non-natural-type stereoisomer salt of monatin and use thereof” (Ajinomoto Co., Inc., priority 2001, dated 2010).

For series [1] the following is noted: hydrochlorides, reported by K. Nakamura et al., cited from earlier work.
A further series concerns panelists. Kind of series: Intensity of sweet taste, tasted against a 5% aqueous sucrose standard solution. It is filed as in vivo. Conditions: for Sweetness Intensity / Degree of sweet taste / intensity of sweet taste: as compared with a 5% aqueous solution of sucrose; for Degree of sweet taste / intensity of sweet taste: salt crystals. Here is the method:
Intensity of sweet taste (sweetening potency; degree of sweet taste) of the crystals of each stereoisomer obtained can be determined by comparing with a 5% aqueous solution of sucrose, but a method for the determination of intensity of sweet taste is not limited thereto. “Sweet taste” intensity of each stereoisomer obtained was measured by the following method. A 0.05% aqueous solution of each stereoisomer was prepared and diluted to an appropriate extent to prepare an aqueous solution of a sample of a predetermined concentration. Separately, a 5% aqueous solution of sucrose was prepared and used as a standard solution. The diluted aqueous solution of the sample and the standard aqueous sucrose solution were tasted one after another and the sweetness rate was determined from the sample concentration where the intensities of sweetness were noted to be same. Seven panelists performed the evaluation.

A short description of series [2]: Comparison of thermostability of the crystals (120° C., open vial, decomposed products by HPLC). It counts as physicochemical. The conditions noted are these: area % to residual monatin. Here is the method: Comparison of Thermostability of the Crystals.
Each 50 mg of the crystals and the amorphous solid prepared by the above-mentioned methods were placed in a 4-ml vial and preserved (kept) at the temperature of 120° C. At that time, the vial was made in an open state. Each 2 mg of the sample were taken out after retention time of 3 hours, 7 hours and 24 hours and the rate (ratio) of decomposed products were determined by means of HPLC (high-performance liquid chromatography).

The mark [3] stands for this setting: samples crystallized and purified as a sodium salt.
[4] abbreviates: samples prepared by HPLC, purified by ion-exchange resin and freeze-dried as an ammonium salt.

Read-outs that look alike come from different tables or passages of the source.

In the case of `Cl.N[C@@H](C[C@](O)(Cc1c[nH]c2ccccc12)C(=O)O)C(=O)O`, the “Sweet taste, in words” value in series [1] was “almost no sweet taste”; in series [1] (listed as synthetic (2S,4R) monatin substance), “slightly sweet taste”.
For `N[C@H](CC(O)(Cc1c[nH]c2ccccc12)C(=O)O)C(=O)O` (stereo partly drawn) [(2R, 4S)], the “Sweetness Intensity” value is given as “ca. 1300” with panelists (setting [3]) and “ca. 800” in the series with panelists (setting [4]).
In the case of `N[C@@H](C[C@@](O)(Cc1c[nH]c2ccccc12)C(=O)O)C(=O)O` [(2S, 4S), (2S,4S)-2-amino-4-carboxy-4-hydroxy-5-(3-indolyl)-pentanoic acid], the “Intensity of the sweet taste” value with panelists (Example 1 ammonium salts, amorphous solid, 5% aqueous sucrose standard, seven panelists) is “about 300 fold”. Also, the results for the “Sweetness Intensity” value in the series with panelists (setting [3]) and in the series with panelists (setting [4]) were “ca. 50” and “ca. 300”, respectively. In addition, the “Intensity of sweet taste, comparison in words” value with panelists (comparison among the four stereoisomers and with reported data) is “far lower than the data which were reported already”. Moreover, in the series on panelists, the “Degree of sweet taste / intensity of sweet taste” value is listed as “about 50 fold”.
As for `N.N[C@H](C[C@](O)(Cc1c[nH]c2ccccc12)C(=O)O)C(=O)O` [Ammonium salt crystals], the figures for the “Rate of Decomposed Product A (%)” value in series [2] (retention time 3 hours), in series [2] (retention time 7 hours) and in series [2] (retention time 24 hours) were 1.9%, 3.8% and 11.8%, respectively. The “Rate of Decomposed Product B (%)” value in series [2] (retention time 3 hours) was determined as 1.2%; in series [2] (retention time 7 hours), 2.3%; in series [2] (retention time 24 hours), 7.6%.
For the molecule `NC(CC(O)(Cc1c[nH]c2ccccc12)C(=O)O)C(=O)[O-].[Na+]` (centres unmarked) [Example 11], in the series on panelists, the “Degree of sweet taste / intensity of sweet taste” value is listed as “about 1300 fold”.
Consider `N[C@H](CC(O)(Cc1c[nH]c2ccccc12)C(=O)O)C(=O)O` (some centres unmarked) [Free substance crystals], for which the figures for the “Rate of Decomposed Product A (%)” value in series [2] (retention time 3 hours), in series [2] (retention time 7 hours) and in series [2] (retention time 24 hours) were 2.0%, 3.8% and 5.3%, respectively. For the same molecule, the “Rate of Decomposed Product B (%)” value in series [2] (retention time 3 hours) was 2.1%; in series [2] (retention time 7 hours), 4.3%; in series [2] (retention time 24 hours) it was 11.7%.
In the case of `Cl.N[C@@H](C[C@@](O)(Cc1c[nH]c2ccccc12)C(=O)O)C(=O)O` [synthetic (2S,4S) monatin substance], in series [1], the “Sweet taste, in words” value is “sweet potency equivalent to that of the a natural specimen of monatin”.
